Source: PMC10730845, “Endoxifen downregulates AKT phosphorylation through protein kinase C beta 1 inhibition in ERα+ breast cancer” (NPJ Breast Cancer, 2023)

Columns and labels:
[1] = biological target: PKC gamma (PKCg) (Homo sapiens, UniProt P05129); experiment: In vitro kinase assay, PKC gamma; type: biochemical; settings: 10 μM ATP
Source text: Supplementary Table 4. In vitro kinase assay showing the IC 50 concentration of ENDX and
of the 12 PKC family members.
(1 picture or pasted object on this page, not shown here)

[2] = system: MCF7AC1 cells; experiment: IncuCyte Annexin V apoptosis assay, MCF7AC1; type: cell-based, human; settings: CSS medium, 48 h
Procedure: MCF7AC1 and T47D-LTED cells were plated at a density of 2000 cells per well in CSS medium for 24 h. Cells were then co-treated for 48 h with vehicle or drug, IncuCyte Annexin V green reagent (#4642, 1:300), an early-stage apoptosis marker, and IncuCyte NucLight rapid red reagent (#4717, 1:500), a dye that stains all cell nuclei red, in CSS medium. MCF7AC1^caAKT cells were plated at a cell density of 2000 cells per well in CSS medium in the absence or presence of cumate for 48 h and then co-treated with vehicle or drug, Annexin V green and NucLight rapid red reagents in the absence or presence of cumate for an additional 48 h in CSS medium.

[3] = system: AKT phosphorylation in T47D cells; experiment: Immunoblot of AKT phosphorylation, serum starved T47D; type: cell-based, human; settings: not at 0.01 or 0.10 µM
Procedure: The ENDX hydrochloride utilized in this study was synthesized in collaboration between Mayo Clinic and National Institute of Health (NIH). Estrogen deprived MCF7AC1 were treated with vehicle control or ENDX (National Cancer Institute) for 24 h. For the phorbol 12-myristate 13-acetate (PMA) (LC Laboratories, #P-1680) experiments, MCF7AC1 cells were maintained in serum-free medium for 24 h prior to pretreatment with vehicle or ENDX for 2 h followed by treatment with 20 or 200 nM PMA for 20 min. For the insulin (Sigma-Aldrich, #I0516) experiments, MCF7AC1 and T47D cells were maintained in serum-free medium for 24 h prior to pretreatment with vehicle control or drugs for 2 h followed by treatment with 100 nM insulin for 1 h.
Protein lysates were prepared using the RIPA lysis buffer system (ChemCruz #sc-24948) and quantified using the DC^TM Protein Assay reagents (Bio-Rad #5000112). Equal amounts of protein lysates were separated on 10% Criterion gels (Bio-Rad #3450112), transferred to PVDF membranes (Bio-Rad #1620177), blocked in TBST-5% milk and probed with primary antibodies listed in Supplementary Table 5, at the indicated dilutions. Membranes were incubated with HRP-conjugated anti-rabbit (CST #7074) or anti-mouse (CST #7076) secondary antibodies and visualized using chemiluminescent West Pico (Thermo Scientific #34580) or West Femto (Thermo Scientific #34096) reagents and a Li-Cor Odyssey® XF imager. […] Quantitation of the protein bands signal intensity was performed using the NIH ImageJ image analysis software (https://imagej.nih.gov/ij///index.html). For the quantitation of the phospho protein levels, we first normalized total protein levels to β-actin loading control and used these values to normalize the phospho protein levels and compared change in protein expression levels relative to vehicle control normalized to 1.0. For the quantitation of total protein levels, we normalized the total protein levels to β-actin and compared change in expression levels relative to vehicle control normalized to 1.0. […]

[4] = system: MDAMB231 cells; experiment: Crystal violet growth assay, MDAMB231; type: cell-based, human; settings: 0–10 µM tested, day seven
Source text: (§1) Supplementary Figure 8. […]
(§2) ANOVA. b, Effects of ENDX on cell proliferation at the indicated concentrations on day seven of
(§3) treatment. […]

[5] = system: MDAMB436 cells; experiment: Crystal violet growth assay, MDAMB436; type: cell-based, human; settings: day seven
Source text: as §1, §2, §3

[6] = system: PKCβ1 and AKT^Ser473 phosphorylation in MDAMB231 cells; experiment: Immunoblot of PKCβ1 and pAKT^Ser473, MDAMB231; type: cell-based, human; settings: 5 µM, 2 h pretreatment, 100 nM insulin 1 h
Source text: (§4) To determine whether the observed effects of ENDX on PKCβ1 degradation and AKT^Ser473 phosphorylation inhibition are dependent on the presence of ERα, we additionally evaluated ENDX effects on PKCβ1 degradation and AKT^Ser473 phosphorylation in the ER negative (ER-) MDAMB231 breast cancer cells and nonbreast HEK293F cells, a human embryonic kidney cell line, both of which express higher amounts of PKCβ1 compared to ERα+ MCF7AC1 cells (Supplementary Fig. 5a). […] To determine whether the addition of ERα to the MDAMB231 cell line could facilitate ENDX effects on PKCβ1, we performed doxycycline (dox)-induced ERα protein expression in MDAMB231 cells and evaluated ENDX effects on PKCβ1 using the above-mentioned experimental conditions. […] Additionally, we pretreated MDAMB231 and HEK293F cells with or without 5 µM ENDX for 1 h followed by 0 or 200 nM PMA treatment for 20 min and evaluated effects on PKCβ1.
(§5) Supplementary Figure 5. Effects of ENDX on PKCβ1, phospho -PKCB1Ser661 and phospho-AKTSer473 expression levels in ERα- breast cancer cells. a, Basal expression of PKCβ1 and ERα in the indicated cell lines. […]

[7] = system: PKCβ1 and AKT^Ser473 phosphorylation in HEK293F cells; experiment: Immunoblot of PKCβ1 and pAKT^Ser473, HEK293F; type: cell-based, human; settings: 5 µM, 2 h pretreatment, 100 nM insulin 1 h
Source text: as §4, §5

CC/C(=C(\c1ccc(O)cc1)c1ccc(OCCNC)cc1)c1ccccc1 [ENDX, Z-endoxifen]
IC50 [1]: 49.7 µM
Concentrations that induced apoptosis ([2]; 0 to 10 µM tested): ≥ 2.5 µM
Effect on apoptosis ([2]; ENDX 5 µM, TAM 0.1 µM, ICI 0.1 µM): induced apoptosis
Concentration blocking insulin-stimulated AKT^Ser473 phosphorylation [3]: 5 µM
Concentrations at which growth was inhibited [4]: ≥ 7.5 µM
Concentrations at which growth was inhibited [5]: > 7.5 µM
Effect on PKCβ1 protein levels [6]: did not impact PKCβ1 protein levels
Effect on insulin induced AKT^Ser473 phosphorylation [6]: did not inhibit this phosphorylation
Effect on PKCβ1 protein levels [7]: did not impact PKCβ1 protein levels
Effect on insulin induced AKT^Ser473 phosphorylation [7]: did not inhibit this phosphorylation
